Holding throughout (type): biochemical
For one assay, the target named is T1, CDK7/CyclinH/MAT1 (Homo sapiens, UniProt P50613).
T1 construct: purchased Millipore 14-476M
Put plainly: CDK7/CyclinH/MAT1 kinase inhibitory activity (Caliper mobility shift). To be noted: enzyme 12.5 nM, ATP 70 μM, 28° C. 30 min; read-out: CDK7/Cyclin H/MAT1 IC50. Here is the method:
CDK7/CyclinH/MAT1 kinase inhibitory activity (IC50): 5 μl of various dilutions of test compound in 1× kinase buffer (20 mM HEPES, pH 7.5, 10 mM MgCl2, 2 mM DTT and 0.01% Triton X-100) was mixed with 10 μL of CDK7/CyclinH/MAT1 (Millipore, 14-476M #, final concentration 12.5 nM in 1× Kinase buffer) in 384 plates and incubated at room temperature for 10 min. To initiate each reaction, 10 μL of peptide solution containing fluorescently-labeled-peptide CTD3 (5-FAM-[…], GL, SY346885 #, final concentration 3000 nM) and ATP (final concentration 70 μM) in 1× Kinase buffer was added to each of the wells containing test compound and CDK7/CyclinH/MAT1 mixture. The reaction is then allowed to proceed at 28° C. for 30 min and terminated by the addition of 25 μL stop buffer (100 mM HEPES pH 7.5, 50 mM EDTA, 0.2% Coating Reagent #3 (Perkin Elmer, 760050 #) and 0.015% Brij-35).
(§1) Following the kinase reaction, Caliper EZ reader II (Downstream voltages: −500V, Upstream voltages: −2250V, Base pressure −0.5 PSI, Screen pressure −1.2 PSI) was used to separate the phosphoiylated (product) and the unphosphorylated (substrate) fluorescently-labeled peptide CTD3 based on their different mobility. Both substrate and product were measured and the ratio of these values were used to generate % conversion by Caliper EZ reader II. These conversion values were then transformed into % inhibition of kinase activity using the formula: % Inhibition=[(MA−X)/(MA−MI)]×100% where MA=conversion value of DMSO only controls, MI=conversion value of no enzyme controls and X=conversion value at any given compound dose. IC50 values were then calculated by plotting dose-response curves and then using the XLfit application in Excel software.

The next assay deals with T2, CDK1/CyclinB (Homo sapiens, UniProt P06493).
T2 construct: purchased Millipore 14-450M
T2 sequence (P06493 whole entry): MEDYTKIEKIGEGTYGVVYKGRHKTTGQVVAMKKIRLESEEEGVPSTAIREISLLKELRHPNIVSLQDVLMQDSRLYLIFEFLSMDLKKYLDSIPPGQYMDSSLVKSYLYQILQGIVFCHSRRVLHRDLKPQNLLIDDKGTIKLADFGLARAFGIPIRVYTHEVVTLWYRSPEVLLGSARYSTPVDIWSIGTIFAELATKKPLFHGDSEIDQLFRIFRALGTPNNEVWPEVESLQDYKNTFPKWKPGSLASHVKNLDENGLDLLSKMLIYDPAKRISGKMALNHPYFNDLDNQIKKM
T2 sequence (P14635 whole entry partner): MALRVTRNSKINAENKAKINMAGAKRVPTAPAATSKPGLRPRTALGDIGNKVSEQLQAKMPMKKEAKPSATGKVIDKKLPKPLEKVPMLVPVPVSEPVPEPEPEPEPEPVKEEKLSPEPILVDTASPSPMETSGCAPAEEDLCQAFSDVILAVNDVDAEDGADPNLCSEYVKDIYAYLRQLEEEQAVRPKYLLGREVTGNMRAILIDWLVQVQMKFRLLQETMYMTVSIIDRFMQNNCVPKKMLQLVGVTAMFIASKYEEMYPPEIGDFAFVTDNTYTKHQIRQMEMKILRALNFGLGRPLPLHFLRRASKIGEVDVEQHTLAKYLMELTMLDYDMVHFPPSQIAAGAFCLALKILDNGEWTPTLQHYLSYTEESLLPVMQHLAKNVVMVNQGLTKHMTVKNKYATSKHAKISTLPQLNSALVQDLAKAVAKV
Put plainly: CDK1/CyclinB kinase inhibitory activity (Caliper mobility shift). To be noted: enzyme 3 nM, ATP 20 μM, 28° C. 30 min; read-out: CDK1/Cyclin B1 IC50. Here is the method:
CDK1/CyclinB kinase inhibitory activity (IC50): 5 μl of various dilutions of test compound in 1× kinase buffer (50 mM HEPES pH 7.5, 10 mM MgCl2, 2 mM DTT and 0.01% Brij-35) was mixed with 10 μL of CDK1/CyclinB (Millipore, 14-450M #, final concentration 3 nM in 1× Kinase buffer) in 384 plates and incubated at room temperature for 10 min. To initiate each reaction, 10 μL of peptide solution containing fluorescently-labeled-peptide 18(5-FAM-QSPKKG-CONH2) (GL, 114202 #, final concentration 3000 nM) and ATP (final concentration 20 μM) in 1× Kinase buffer was added to each of the wells containing test compound and CDK1/CyclinB mixture. The reaction is then allowed to proceed at 28° C. for 30 min and terminated by the addition of 25 μL stop buffer (100 mM HEPES pH 7.5, 50 mM EDTA, 0.2% Coating Reagent #3 (Perkin Elmer, 760050 #) and 0.015% Brij-35).
as §1, with “phosphorylated” for “phosphoiylated”, “18” for “CTD3”

In a further assay the target is T3, CDK4/CyclinD1 (Homo sapiens, UniProt P11802).
T3 construct: purchased ProQinase 0142-0143-1
T3 sequence (P11802 whole entry): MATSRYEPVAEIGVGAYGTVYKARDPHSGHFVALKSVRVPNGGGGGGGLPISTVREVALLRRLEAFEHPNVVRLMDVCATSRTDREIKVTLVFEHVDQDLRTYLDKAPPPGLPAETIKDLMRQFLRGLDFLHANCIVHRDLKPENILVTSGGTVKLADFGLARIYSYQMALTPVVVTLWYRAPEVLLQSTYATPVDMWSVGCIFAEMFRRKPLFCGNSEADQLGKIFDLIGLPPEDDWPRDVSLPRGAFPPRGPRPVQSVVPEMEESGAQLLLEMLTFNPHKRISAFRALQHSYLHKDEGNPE
T3 sequence (P24385 whole entry partner): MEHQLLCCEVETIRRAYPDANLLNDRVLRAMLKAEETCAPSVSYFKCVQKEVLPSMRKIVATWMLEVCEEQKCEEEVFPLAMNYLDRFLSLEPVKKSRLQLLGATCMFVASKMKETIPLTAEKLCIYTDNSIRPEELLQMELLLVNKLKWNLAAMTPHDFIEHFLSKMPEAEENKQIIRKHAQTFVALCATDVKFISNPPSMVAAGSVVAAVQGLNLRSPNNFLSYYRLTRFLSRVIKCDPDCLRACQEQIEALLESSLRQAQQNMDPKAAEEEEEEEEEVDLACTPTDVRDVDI
Briefly: CDK4/CyclinD1 kinase inhibitory activity (Caliper mobility shift). As to conditions: enzyme 20 nM, ATP 672 uM, 28° C. 30 min; read-out: CDK4/Cyclin D1 IC50. An outline of the steps:
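Recombinant CDK4/Cyclin D1 (20 nM final) preincubated 10 min at room temperature with compound in HEPES pH 7.5 buffer with MgCl2, DTT and Triton X-100. Reaction started with 3000 nM FAM-labelled peptide and 672 uM ATP, run 30 min at 28° C, stopped with EDTA. Mobility-shift % conversion gave % inhibition, and IC50 came from dose-response fits.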

This is an account of results in US20260242395A1, “AMINOHETEROARYL KINASE INHIBITORS” (ALLORION THERAPEUTICS INC, priority 2022, published 2026).

Each structure is given as a SMILES string. A value given as a limit tells only on which side of the number the result lay.

T1 sequence (P50613 whole entry): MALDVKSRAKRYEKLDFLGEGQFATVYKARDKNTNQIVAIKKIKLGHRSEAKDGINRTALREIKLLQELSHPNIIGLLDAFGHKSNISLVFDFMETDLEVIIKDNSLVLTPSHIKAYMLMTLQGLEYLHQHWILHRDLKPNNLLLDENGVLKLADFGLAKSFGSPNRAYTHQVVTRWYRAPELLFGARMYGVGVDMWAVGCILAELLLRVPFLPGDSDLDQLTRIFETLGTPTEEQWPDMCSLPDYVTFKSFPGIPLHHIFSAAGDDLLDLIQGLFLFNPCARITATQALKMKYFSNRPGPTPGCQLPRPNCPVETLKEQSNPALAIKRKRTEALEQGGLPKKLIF
T1 sequence (P51946 whole entry partner): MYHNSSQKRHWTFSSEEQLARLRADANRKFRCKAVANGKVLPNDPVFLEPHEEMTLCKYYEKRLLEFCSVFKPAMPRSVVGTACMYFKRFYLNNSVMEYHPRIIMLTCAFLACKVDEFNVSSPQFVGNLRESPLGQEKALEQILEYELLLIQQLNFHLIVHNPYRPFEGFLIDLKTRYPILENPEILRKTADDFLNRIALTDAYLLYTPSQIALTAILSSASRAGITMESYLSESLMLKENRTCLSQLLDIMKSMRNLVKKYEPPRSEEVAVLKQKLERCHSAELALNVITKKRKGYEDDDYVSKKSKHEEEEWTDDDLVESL
T1 sequence (P51948 whole entry partner): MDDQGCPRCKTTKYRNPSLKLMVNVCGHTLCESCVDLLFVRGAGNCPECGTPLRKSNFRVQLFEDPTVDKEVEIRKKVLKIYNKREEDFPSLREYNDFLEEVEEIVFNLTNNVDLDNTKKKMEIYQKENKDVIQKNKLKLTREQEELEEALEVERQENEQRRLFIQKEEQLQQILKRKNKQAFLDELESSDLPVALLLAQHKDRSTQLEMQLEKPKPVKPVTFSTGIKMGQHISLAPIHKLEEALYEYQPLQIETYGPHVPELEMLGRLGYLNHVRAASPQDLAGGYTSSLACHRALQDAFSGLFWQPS

For `[2H]c1nc2c(F)cc(-c3nc(N[C@@H]4CCOC[C@H]4O)ncc3F)cc2c(C)c1C(C)(C)O` [Example 94], the results for the IC50 at CDK7/CyclinH/MAT1, at CDK1/CyclinB and on CDK4/CyclinD1 were 10 to 100 nM, 100 to 1000 nM and under 10 nM, respectively.

Consider `Cc1nc2c(F)cc(-c3nc(N[C@@H]4CCOC[C@H]4O)ncc3Cl)cc2cc1C(C)NC1CC1` (single isomer, unassigned) [Example 73b], for which the IC50 is at least 1000 nM on CDK7/CyclinH/MAT1, 100 to 1000 nM at CDK1/CyclinB and under 10 nM at CDK4/CyclinD1.

As for `CC1Cc2cnc3c(F)cc(-c4nc(N[C@@H]5CCOC[C@H]5O)ncc4Cl)cc3c2CN1` (single isomer, unassigned) [Example 34a], the IC50 at CDK7/CyclinH/MAT1 is 100 to 1000 nM; at CDK1/CyclinB it was 100 to 1000 nM; on CDK4/CyclinD1, under 10 nM.

Take `CC(C)n1c(C(C)(C)O)nc2c(F)cc(-c3cc(N[C@@H]4CCOC[C@H]4O)ncc3Cl)cc21` [Example 12, (3S,4R)-4-((5-chloro-4-(4-fluoro-2-(2-hydroxypropan-2-yl)-1-isopropyl-1H-benzo[d]imidazol-6-yl)pyridin-2-yl)amino)tetrahydro-2H-pyran-3-ol]: the IC50 was at least 1000 nM on CDK7/CyclinH/MAT1, at least 1000 nM on CDK1/CyclinB and 10 to 100 nM at CDK4/CyclinD1.

For `CNC(C)(C)c1cnc2c(F)cc(-c3nc(N[C@@H]4CCOC[C@H]4O)ncc3Cl)cc2c1` [Example 36], the IC50 on CDK7/CyclinH/MAT1 was at least 1000 nM; on CDK1/CyclinB, at least 1000 nM; at CDK4/CyclinD1 it was 10 to 100 nM.

Regarding `[2H]c1nc2c(F)cc(-c3nc(N[C@@H]4CCOC[C@H]4O)ncc3C)cc2c2c1CC(C)(C)NC2` [Example 102], the IC50 is at least 1000 nM on CDK7/CyclinH/MAT1, at least 1000 nM at CDK1/CyclinB and under 10 nM on CDK4/CyclinD1.

As to `Cc1nc2c(F)cc(-c3nc(N[C@@H]4CCOC[C@H]4O)ncc3Cl)cc2c(Cl)c1C(C)O` (single isomer, unassigned) [Example 35b], the IC50 on CDK7/CyclinH/MAT1 is at least 1000 nM; at CDK1/CyclinB, at least 1000 nM; on CDK4/CyclinD1, under 10 nM.

As to `O[C@@H]1COCC[C@H]1Nc1ncc(Cl)c(-c2cc(F)c3ncc4c(c3c2)CCNC4)n1` [Example 8, (3S,4R)-4-((5-chloro-4-(7-fluoro-1,2,3,4-tetrahydrobenzo[c][2,7]naphthyridin-9-yl)pyrimidin-2-yl)amino)tetrahydro-2H-pyran-3-ol], the IC50 at CDK7/CyclinH/MAT1 was 10 to 100 nM; on CDK1/CyclinB, 10 to 100 nM; on CDK4/CyclinD1 it was under 10 nM.

In the case of `Cc1nc2c(F)cc(-c3nc(N[C@@H]4CCOC[C@H]4O)ncc3Cl)cc2c(Cl)c1C(C)O` (single isomer, unassigned) [Example 35a], the IC50 at CDK7/CyclinH/MAT1 is at least 1000 nM; at CDK1/CyclinB, 100 to 1000 nM; on CDK4/CyclinD1, under 10 nM.

Turning to `CC(C)(O)c1cnc2c(F)cc(-c3nc(N[C@@H]4CCOC[C@H]4O)ncc3Cl)cc2c1` [Example 1, (3S,4R)-4-((5-chloro-4-(8-fluoro-3-(2-hydroxypropan-2-yl)quinolin-6-yl)pyrimidin-2-yl)amino)tetrahydro-2H-pyran-3-ol], the IC50 is at least 1000 nM at CDK7/CyclinH/MAT1, at least 1000 nM at CDK1/CyclinB and under 10 nM on CDK4/CyclinD1.

With `[2H]C([2H])([2H])C(O)(c1cc2cc(-c3nc(N[C@@H]4CCOC[C@H]4O)ncc3Cl)cc(F)c2nc1C)C([2H])([2H])[2H]` [Example 60, (3S,4R)-4-((5-chloro-4-(8-fluoro-3-(2-hydroxypropan-2-yl-1,1,1,3,3,3-d6)-2-methylquinolin-6-yl)pyrimidin-2-yl)amino)tetrahydro-2H-pyran-3-ol], the IC50 is at least 1000 nM at CDK7/CyclinH/MAT1, at least 1000 nM at CDK1/CyclinB and under 10 nM on CDK4/CyclinD1.

For the compound `[2H]c1nc2c(F)cc(-c3nc(N[C@@H]4CCOC[C@H]4O)ncc3Cl)cc2c2c1CC(C)(C)NC2` [Example 100], the figures for the IC50 on CDK7/CyclinH/MAT1, on CDK1/CyclinB and at CDK4/CyclinD1 were 100 to 1000 nM, 100 to 1000 nM and under 10 nM, respectively.

Take `CC1(C)Cc2cnc3c(F)cc(-c4nc(N[C@@H]5CCOC[C@H]5O)ncc4Cl)cc3c2CN1` [Example 30]: the IC50 is at least 1000 nM on CDK7/CyclinH/MAT1, 100 to 1000 nM on CDK1/CyclinB and under 10 nM on CDK4/CyclinD1.

In the case of `O[C@@H]1COCC[C@H]1Nc1ncc(Cl)c(-c2cc(F)c3ncc4c(c3c2)C2CCC(C4)N2)n1` (single isomer, unassigned) [Example 20b], the IC50 was 100 to 1000 nM on CDK7/CyclinH/MAT1, 100 to 1000 nM on CDK1/CyclinB and under 10 nM on CDK4/CyclinD1.

For the compound `Cc1c(C(C)(C)O)cnc2c(F)cc(-c3nc(N[C@@H]4CCOC[C@H]4O)ncc3Cl)cc12` [Example 7, (3S,4R)-4-((5-chloro-4-(8-fluoro-3-(2-hydroxypropan-2-yl)-4-methylquinolin-6-yl)pyrimidin-2-yl)amino)tetrahydro-2H-pyran-3-ol], the figures for the IC50 at CDK7/CyclinH/MAT1, at CDK1/CyclinB and at CDK4/CyclinD1 were at least 1000 nM, 100 to 1000 nM and under 10 nM, respectively.

As to `[2H]c1nc(N[C@@H]2CCOC[C@H]2O)nc(-c2cc(F)c3nc(C)c(C(C)(C)O)cc3c2)c1F` [Example 83], the IC50 at CDK7/CyclinH/MAT1 is 100 to 1000 nM; on CDK1/CyclinB, 100 to 1000 nM; at CDK4/CyclinD1, under 10 nM.

Regarding `Cc1nc2c(F)cc(-c3nc(N[C@@H]4CCOC[C@H]4O)ncc3Cl)cc2c2c1CCN(C)C2` [Example 37], the IC50 on CDK7/CyclinH/MAT1 was at least 1000 nM; on CDK1/CyclinB, at least 1000 nM; on CDK4/CyclinD1, under 10 nM.

For `CC(C)(N)c1cnc2c(F)cc(-c3nc(N[C@@H]4CCOC[C@H]4O)ncc3Cl)cc2c1` [Example 14, (3S,4R)-4-((4-(3-(2-aminopropan-2-yl)-8-fluoroquinolin-6-yl)-5-chloropyrimidin-2-yl)amino)tetrahydro-2H-pyran-3-ol], the IC50 at CDK7/CyclinH/MAT1 is 100 to 1000 nM; on CDK1/CyclinB, 10 to 100 nM; at CDK4/CyclinD1, under 10 nM.

With `CC(C)(O)c1cnc2c(F)cc(-c3nc(N[C@@H]4CCOC[C@H]4O)ncc3C#N)cc2c1Cl` [Example 41], the IC50 on CDK7/CyclinH/MAT1 was at least 1000 nM; on CDK1/CyclinB, at least 1000 nM; at CDK4/CyclinD1 it was under 10 nM.

In the case of `O[C@@H]1COCC[C@H]1Nc1ncc(Cl)c(-c2cc(F)c3ncc4c(c3c2)CNCC4)n1` [Example 9, (3S,4R)-4-((5-chloro-4-(7-fluoro-1,2,3,4-tetrahydrobenzo[c][2,6]naphthyridin-9-yl)pyrimidin-2-yl)amino)tetrahydro-2H-pyran-3-ol], the IC50 on CDK7/CyclinH/MAT1 is 100 to 1000 nM; on CDK1/CyclinB it was 100 to 1000 nM; on CDK4/CyclinD1, under 10 nM.

On to `[2H]c1nc2c(F)cc(-c3nc(N[C@@H]4CCOC[C@H]4O)ncc3C)cc2c2c1CC1(CC1)NC2` [Example 67], for which the values for the IC50 on CDK7/CyclinH/MAT1, at CDK1/CyclinB and on CDK4/CyclinD1 were at least 1000 nM, at least 1000 nM and 10 to 100 nM, respectively.

Consider `CNC(C)c1cc2cc(-c3nc(N[C@@H]4CCOC[C@H]4O)ncc3Cl)cc(F)c2nc1C` (single isomer, unassigned) [Example 45b], for which the IC50 is at least 1000 nM at CDK7/CyclinH/MAT1, at least 1000 nM on CDK1/CyclinB and under 10 nM at CDK4/CyclinD1.

As for `Cc1nc2c(F)cc(-c3nc(N[C@@H]4CCOC[C@H]4O)ncc3F)cc2c(C)c1C(C)O` (single isomer, unassigned) [Example 81b], the results for the IC50 at CDK7/CyclinH/MAT1, on CDK1/CyclinB and on CDK4/CyclinD1 were 100 to 1000 nM, 100 to 1000 nM and under 10 nM, respectively.
